Literature values as cited in Sander's compilation of Henry's law constants (doi:10.1080/01483918608076621).

assay: Henry solubility constant Hcp at 298.15 K (mol/(m3 Pa)); conditions: reference: Janini and Quaddora (1986); cited value

| Henry solubility constant Hcp | Compound |
| --- | --- |
| 6.1 | Cc1cccc(O)c1 [1-hydroxy-3-methylbenzene] |
| 5.2 | Cc1ccc(O)cc1 [1-hydroxy-4-methylbenzene] |
| 0.35 | CCCCCC(C)=O [2-heptanone] |
| 0.091 | CCCC(C)=O [2-pentanone] |
| 0.029 | CC(=O)OC(C)C [2-propyl ethanoate] |
| 0.2 | CCC(=O)CC [3-pentanone] |
| 0.054 | CCCC=O [butanal] |
| 0.047 | CCOC(C)=O [ethyl ethanoate] |
| 0.044 | CCCOC(C)=O [propyl ethanoate] |

| Compound | Henry solubility constant Hcp |
| --- | --- |
| Cc1ccccc1O [1-hydroxy-2-methylbenzene] | 2.6 |
| CCCCOC(C)=O [butyl ethanoate] | 0.035 |
| CC(C)=O [propanone] | 0.03 |
